Blank lines part the entries; values can stand above or below the compound they belong to.
Key:
[1] = biological target: T1, L-sorbosone dehydrogenase, purified from cytosol fraction of Gluconobacter oxydans UV-10 (FERM BP-1267) (Gluconobacter oxydans, UniProt Q47943); test: biochemical; settings: pH 7, read-out: Relative Activity (%) in presence of substance
T1 sequence (Q47943 1-498): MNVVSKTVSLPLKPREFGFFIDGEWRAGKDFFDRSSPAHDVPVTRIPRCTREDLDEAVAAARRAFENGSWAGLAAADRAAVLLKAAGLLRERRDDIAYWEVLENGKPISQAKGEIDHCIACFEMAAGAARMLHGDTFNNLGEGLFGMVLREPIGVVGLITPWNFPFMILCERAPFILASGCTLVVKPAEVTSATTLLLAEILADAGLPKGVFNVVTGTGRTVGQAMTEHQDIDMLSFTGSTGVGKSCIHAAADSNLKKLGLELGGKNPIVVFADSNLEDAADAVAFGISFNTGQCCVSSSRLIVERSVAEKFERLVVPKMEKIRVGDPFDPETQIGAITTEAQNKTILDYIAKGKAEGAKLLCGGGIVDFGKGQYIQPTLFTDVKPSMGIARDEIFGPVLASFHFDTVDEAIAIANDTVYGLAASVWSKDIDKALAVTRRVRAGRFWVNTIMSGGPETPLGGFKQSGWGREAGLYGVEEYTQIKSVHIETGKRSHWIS

[2] = biological target: T1, L-sorbosone dehydrogenase, purified from cytosol fraction of Gluconobacter oxydans UV-10 (FERM BP-1267)

activity at 5000 µM [1]: 119%
Structure (SMILES): O[C@H](CS)[C@H](O)CS (racemic) [Dithiothreitol]

Structure (SMILES): O=C(O)CI [ICH2 COONa]
activity at 5000 µM [1]: 57.7%

Structure (SMILES): CCN1C(=O)C=CC1=O [N--Ethylmaleimide, N-Ethylmaleimide]
Effect on enzyme activity (in words) ([2]; summary of Table 8): inhibited the enzyme activity strongly
activity at 1000 µM [1]: 0%

Structure (SMILES): [N-]=[N+]=[N-].[Na+] [NaN3]
Relative Activity (%) in presence of substance ([2]; substance conc. 5 mM, None = 100, pH 7.0, 30° C.): 100%

From patent publication US4902617A, “Enzyme and process for producing the same” (Hoffmann-La Roche Inc., priority 1986, dated 1990)
